Experimental data taken from patent publication US10857112B2, “Small molecule inhibitors of RNA binding motif (RBM) proteins for the treatment of acute cellular injury” (University of Pittsburgh—Of the Commonwealth System of …, priority 2012, dated 2020).

Tests used:
caspase-8 = assay: STS-induced caspase-8 activity in neurons; format: cell-based, rat; details: 150 nM STS 24 hours; co-treatment 75 μM
[1] = molecular target: T1, recombinant active caspase-3 (Homo sapiens, UniProt P42574); assay: In vitro cell-free caspase-3 drug screening assay (DEVD-AFC); format: biochemical
T1 construct: The reaction mixture was combined with recombinant active caspase-3 and a DEVD-AFC probe; purchased PromoKine (Heidelberg, Germany)
T1 sequence (P42574 29-175 limits assumed): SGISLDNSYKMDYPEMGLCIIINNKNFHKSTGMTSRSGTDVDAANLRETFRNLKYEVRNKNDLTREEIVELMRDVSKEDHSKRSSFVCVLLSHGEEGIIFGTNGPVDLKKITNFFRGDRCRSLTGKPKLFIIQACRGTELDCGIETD
T1 sequence (P42574 176-277 limits assumed): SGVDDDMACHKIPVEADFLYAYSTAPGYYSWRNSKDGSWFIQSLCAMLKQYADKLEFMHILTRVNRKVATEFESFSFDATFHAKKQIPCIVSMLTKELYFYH
Method: An in vitro caspase drug screening kit was purchased from PromoKine (Heidelberg, Germany), and used according to the manufacturer's instructions. Briefly, all drugs were dissolved in DMSO and diluted in double-distilled water to desired concentration. The reaction mixture was combined with recombinant active caspase-3 and a DEVD-AFC probe. Active caspase-3 cleaves the DEVD-recognition sequence and releases fluorescent AFC. The amount of AFC detected is a measure of caspase-3 activity. Reactions were prepared in black-walled 96-well plates, incubated at 37° C., and AFC release measured with an AFC filter (Ex: 405 nm, Em: 495-505 nM) on a GLOMax-Multi Microplate Reader (Promega).

AKT = assay: Western blot of AKT activation (pAKT473); format: cell-based, rat
Method: AKT is a key pro-survival kinase that is dysregulated by acute brain injury. Many diverse therapies used to prevent neuronal death activate AKT, including small molecules, endogenously derived survival proteins, and other non-pharmacology based treatments like therapeutic hypothermia. To further elucidate the mechanisms of AQ2S-mediated neuroprotection, the level of activated (phosphorylated) AKT was measured by western blot.
Neurons used for Western blot analysis for grown in 6-well plates. Briefly, neurons were treated with experimental compounds for the indicated time/conditions. At the end of each experiment, neurons were washed in ice cold PBS and harvested in 65 μL RIPA buffer containing protease inhibitors, phosphatase inhibitors, and EDTA. Extracts were collected in 0.5 mL tubes and sonicated for 20-30 seconds. Cell extracts were then spun at 4° C./16,000 g/10 minutes and stored at −80° C. until use. Frozen extracts were thawed on ice and protein concentration measured using the BCA assay (PIERCE). […] of sample protein was loaded per well of a 7.5% SDS precast gel (Biorad), and run for 30 minutes to 1 hour at 200 V. Kaleidoscope protein standards (Biorad) were run parallel to neuron extracts. Proteins were then transferred to PDVF membranes (run at 100 V/4° C./1.5 hours). PDVF membranes were washed once in tris buffered saline (TBS) and blocked for 1 hour in tris buffered saline/tween-20 with 7.5% nonfat milk (TBS-T/milk). Blots were incubated overnight at 4° C. with primary antibodies in TBS-T/milk. Cell Signaling Technology: phospho-AKT473, AKT Total, phospho-ERK1/2, ERK Total, cleavage caspase-3. Santa Cruz Antibodies: NF-κB p50 subunit, NF-κB p65 subunit, and beta actin. Calbiochem: 4-HNE antibody. Blots were washed 3 times (5 minutes each) with TBS, and incubated with secondary antibodies for 2 hours. Invitrogen: goat anti-rabbit or goat anti-mouse. Blots were washed 3 times (5 minutes each) with TBS, and incubated for 1 minute in HRP detection solution (Amersham). Films were exposed to blots and developed (SRX-101A, Konica Minolta Medical & Graphic Inc.). Re-probed blots (e.g. beta actin, AKT total, ERK total) were stripped in western blot stripping buffer (Fischer Scientific) for 10 minutes, washed once with TBS, re-blocked in TBS-T/milk for 1 hour, and incubated overnight with new primary antibody. Films were scanned (EPSON GT 20,000), and densitometry performed using UN-SCAN-IT software (Silk Scientific).

[2] = test system: extracellular regulated kinase (ERK); assay: Western blot of ERK activation; format: cell-based, rat; details: 125 μM; 17 hours STS
Method: To determine the specificity of AQ2S mediated signaling changes, extracellular regulated kinase (ERK) was also examined. 17 hours STS abolished ERK activation.
Neurons used for Western blot analysis for grown in 6-well plates. Briefly, neurons were treated with experimental compounds for the indicated time/conditions. At the end of each experiment, neurons were washed in ice cold PBS and harvested in 65 μL RIPA buffer containing protease inhibitors, phosphatase inhibitors, and EDTA. Extracts were collected in 0.5 mL tubes and sonicated for 20-30 seconds. Cell extracts were then spun at 4° C./16,000 g/10 minutes and stored at −80° C. until use. Frozen extracts were thawed on ice and protein concentration measured using the BCA assay (PIERCE). […] of sample protein was loaded per well of a 7.5% SDS precast gel (Biorad), and run for 30 minutes to 1 hour at 200 V. Kaleidoscope protein standards (Biorad) were run parallel to neuron extracts. Proteins were then transferred to PDVF membranes (run at 100 V/4° C./1.5 hours). PDVF membranes were washed once in tris buffered saline (TBS) and blocked for 1 hour in tris buffered saline/tween-20 with 7.5% nonfat milk (TBS-T/milk). Blots were incubated overnight at 4° C. with primary antibodies in TBS-T/milk. Cell Signaling Technology: phospho-AKT473, AKT Total, phospho-ERK1/2, ERK Total, cleavage caspase-3. […]

[3] = test system: primary rat cortical neurons; assay: Glutamate excitotoxic injury, neuron viability; format: cell-based; details: 5 μM glutamate 5 minute; post-injury 125 μM; 24 hours
Method: Drugs (AQ2S and MK801) were dissolved in 100% DMSO (vehicle). Rat cortical neurons were isolated from E17 embryos, and seeded onto 96-well plates at a density of 1.5×10^5/well. At day-in-vitro 8 (D.I.V. 8) culture maintenance media was replaced with treatment media (Modified Eagles Buffered Solution) without or with 5 μM Glutamate. After a 5 minute injury in treatment solution, cells were returned to normal culture maintenance media conditions (Neurobasal/B27 supplement) with either: 1) DMSO, 2) 125 μM AQ2S or 3) MK801; MK801 is an NMDA receptor channel blocker and classic neuroprotectant in this injury paradigm. Neuron viability was measured 24 hours post-injury by incubation with CellTiter Blue reagent (PROMEGA) for 2 hours. CellTiter Blue is metabolized into a fluorescent reagent only in living cells. The level of fluorescence (expressed as relative fluorescent units; RFU) was measured on a plate reader (PROMEGA).
Primary rat cortical neurons were grown onto 96-well plates. Neurons were treated with or without 5 μM glutamate. Cells were returned to regular growth media with DMSO, 125 μM AQ2S, or MK801 and viability measured 24 hours later (expressed as relative fluorescent units; RFU). […] Injury (n=7), Glut+AQ2S (n=7) and Glut+MK-801 (n=6). White bar indicated absence of glutamate injury. […] Data were analyzed by ANOVA (p<0.0001); Fisher LSD post-hoc test. * indicates p<0.05. […]

[4] = test system: C57BL6 mice, severe CCI brain injury; assay: Controlled cortical impact (TBI) injury, hippocampal volume; format: in vivo
Method: AQ2S was prepared in 2% DMSO in PBS (i.e. vehicle). C57BL6 mice were administered a severe CCI brain injury. Severe brain trauma was induced by a pneumatic impactor device that delivers a defined cortical injury (impact depth, 1.6 mm; impact velocity, 5 m/s). 15 minutes after injury animals were given a 5 μL intracerebroventricular injection with either vehicle (n=7) or 500 μM AQ2S (n=7). The 5 μL injection volume was delivered at a rate of 0.5 μL/minute. […] A second vehicle or AQ2S injection was administered 24 hours after injury. […] 3 days after injury animals were sacrificed, perfused with a fixative, brains sectioned, and stained with hematoxylin and eosin (H&E). Images were captured using a light microscope and camera.
Mice were given surgical/treatment protocols and hippocampal tissue analyzed 3 days later. […] (D) Left (injured) and right (non-injured) hippocampal volumes were quantified for each mouse; sham (n=5), vehicle CCI injury (n=7), and AQ2S CCI injury (n=7). FIG. 23D show left hippocampal volumes (expressed as % of uninjured right hippocampus).

RBM5 = molecular target: T2, RBM5 (Homo sapiens, UniProt P52756); details: cited from earlier work
T2 sequence (P52756 181-210 limits assumed): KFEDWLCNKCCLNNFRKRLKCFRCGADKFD

rats = details: intraperitoneal; cited from earlier work
mice = details: IP 100, 200 or 400 mg/kg; cited from earlier work
[5] = test system: primary rat cortical neurons; assay: STS injury, neuronal viability and cytotoxicity
Method: At D.I.V. 11, ½ media was collected (conditioned media) and mixed with an equal volume fresh neurobasal media (to make the 24 hour treatment media). STS was prepared at the desired concentration in treatment media, with or without experimental drugs (AQ2S or LY294002). The remaining growth maintenance media was replaced with 100 μL, of treatment media per well of a 96-well plate (or 2 mL for a six-well plate) for 24 hours.
The LDH Cytotoxicity Assay Kit II was purchased from Abcam (Cambridge, Mass., USA). Neurons were cultured in 96-well format and subjected to STS injury ±AQ2S for 24 hours (in 100 μL, total media volume). At 23 hours maximum LDH release (positive control) was prepared by adding 10 μL, cell lysis reagent directly to a few non-injured wells (i.e., no STS or AQ2S). At the end of the 24 hour injury period, 80 μL, of media was transferred to a new 96-well plate. Plates were spun at ˜500 g for 5 minutes. 10 μL, of cell culture treatment media was added to a new black-walled plate and advanced WST detection reagent added. The mix was incubated for ˜15 minutes and absorbance measured (OD 450 nm). Fresh culture media was used as a negative control. Cytotoxicity was calculated using the standard formula: cytotoxicity %=(sample LDH−negative-control LDH)/(maximum LDH release−negative-control LDH)×100.

[6] = 150 nM STS 24 hours, co-treatment 75 μM

O=C1c2ccccc2C(=O)c2cc(S(=O)(=O)O)ccc21 [AQ2S, anthraquinone-2-sulfonic acid]
caspase-8 activity (caspase-8): significantly reduced baseline and injury activity levels
activity of recombinant caspase-3 [1]: significantly reduced the activity of recombinant caspase-3
pAKT473 (AKT; 250 nM STS 6 hours, AQ2S): marginally increased STS-induced pAKT473 at the 6-hour time point, but did not reach statistical significance
pAKT473 (AKT; 250 nM STS 21 hours, 125 μM AQ2S): pAKT473 increased in the presence of AQ2S
AKT activity (pAKT473) (AKT; 125 μM, 17 hours STS injury): significant elevation in AKT activity
ratio of pAKT473/AKT (AKT; 125 μM, 17 hours STS injury): highest in the AQ2S treated group
AKT total (AKT; non-injury, 125 μM): No effect on AKT total was observed
pAKT473 (AKT; non-injury, 125 μM, 4 hours): significant (but modest) rise in pAKT473
pAKT473 (AKT; non-injury, 125 μM, 24 hours): not significant at 24 hours
ERK activation [2]: did not prevent STS-mediated ERK inhibition
viability after glutamate injury [3]: significantly protects neurons from glutamate induced cell death
left hippocampal volume (% of uninjured right hippocampus) ([4]; 5 μL 500 μM intracerebroventricular 15 minutes and 24 hours after CCI, 3 days): not significantly (N.S.) different from Sham animals
estimated final tissue AQ2S concentration ([4]; 5 μL of 500 μM icv, extrapolated from total CSF volume in mice (35 μL), unit of the source corrected): ~71 µM
targeting of zinc-finger domain in RBM5 (RBM5; Farina et al. 2011): selective and potent target of the zinc-finger domain in pro-apoptotic RBM5 and inhibits its function
IC50 (RBM5; read-out: IC50 of AQ2S to inhibit RBM5): ~82 µM
Acute LD50 (rats): 730 mg/kg
survival (mice): all animals survived to toxicology day 5
tumor formation (mice): did not inhibit tumor formation
STS injury, LDH release [5, 6]: significantly reduced 24 hour STS injury
STS injury, cellular ATP levels (GLO-Viability Assay) [5, 6]: significantly reduced 24 hour STS injury
STS injury, live-cell protease activity (CellTiter-Fluor) [5, 6]: significantly reduced 24 hour STS injury
STS injury, resazurin metabolism (CellTiter Blue) [5, 6]: significantly reduced 24 hour STS injury
reduction in viability compared with non-injured controls ([5]; 250 nM STS 24 hours, AQ2S-treated neurons): 17.6%
cell death after STS ([5]; 250 nM STS 24 hours, co-treatment 75 or 125 μM): significantly reduced cell death
cell viability, comparison of neuroprotectants ([5]; 250 nM STS co-administered 24 hours): increased cell viability
neuronal viability, high dose STS ([5]; 500 nM STS 24 hours, co-treatment 125 μM and 150 μM): significantly (but only slightly) increased neuronal viability
baseline viability or cytotoxicity ([5]; compound alone, no STS, 75 μM, 24 h): did not significantly alter baseline viability or cytotoxicity
concentration of maximal protection ([5]; neuroprotection in neuron injury assays): 75 to 125 µM
